# Test system: P388
# Assay: Cytotoxicity against mouse P388 cells
# Format: functional
compound,measurement,value
COc1ccc2c3c(c4cc(OC)c(OC)cc4c2c1)[C@@H](O)[C@@H]1CCCN1C3 [HYPOESTESTATIN 2],ED50,4 ×10⁻⁵ ug/ml

# From ChEMBL document CHEMBL1151630, “Antineoplastic agents, 103. The isolation and structure of hypoestestatins 1 and 2 from the East African Hypoëstes verticillaris” (1984)
